Consider 4 compounds from patent US10342480B2, “Magnetoencephalography biomarkers of GABA-B agonist drug activity in autism spectrum disorders” (THE CHILDREN'S HOSPITAL OF PHILADELPHIA, priority 2013, dated 2019).

The subject of one assay is baseline gamma power. To be noted: NMDAR antagonists; in vivo LFP and EEG recordings in awake rodents; cited from earlier work.
Assay [1] concerns auditory brain activity (M100 latency, gamma-band ITC, steady state gamma) in autism. Description: Magnetoencephalography (MEG) of auditory responses at baseline and 12 weeks after treatment, single subject from clinical trial. Format: in vivo, human. As for the experimental part:
FIG. 5 provides graphs of M100 latency in autism in response to STX209, showing baseline and post-treatment.
To measure M100 STG latency, a 1 Hz (6 dB/octave, forward) to 40 Hz (48 dB/octave, zero-phase) bandpass filter was applied and left and right M100 STG peak latency (measured in nano-Ampere-meters, nAm) was calculated from the largest point in the M100 scoring window (90 to 190 ms) using in-house MatLab software.
The calculation of single-trial phase and magnitude for the left and right STG sources used a modification of procedures (Hoechstetter et al. (2004) Brain Topogr, 16:233-8.) where in each participant the derived source model was applied to the raw unfiltered data. Transformation from the time domain to the time-frequency domain used complex demodulation procedures (Papp et al. (1977) Biomed Sci Instrum, 13:135-45) implemented in BESA 5.2, using frequencies between 4 and 80 Hz, in steps of 2 Hz.1 Continuous data were analyzed relative to the tone onset every 25 ms, utilizing +/−39.4 ms and +/−2.83 Hz (full width at half maximum parameters) of contiguous data at each 25 ms step. Time-frequency measures were computed from −400 to 400 ms relative to stimulus onset. For evoked activity, background activity at each frequency (average power −400 to −100 ms) was calculated and subtracted as a function of frequency. In addition to evoked activity, for each time-frequency bin, a measure of phase-locking referred to as inter-trial coherence was computed as
[formula] where the sum is over all N trials, and Ø (k) is the phase of the signal in the k^th trial. Inter-trial coherence (ITC) is a normalized measure with ITC=1 reflecting no phase variability and ITC=0 reflecting maximal phase variability across trials (Lachaux et al. (1999) Hum. Brain Mapp, 8:194-208). Group Comparisons
A single subject from a recent phase/T clinical trial of STX209 (arbaclofen), a […] agonist, underwent MEG at baseline and at 12 weeks after treatment. […] Indeed, a reduction in 100 ms latency for 4 stimuli in both hemispheres was observed.

For `C[C@]12N[C@H](Cc3ccccc31)c1ccccc12` [MK-801], the baseline gamma power entry in the assay on baseline gamma power is listed as “dose-dependent increase in baseline gamma power”.

Regarding `c1ccc(C2(N3CCCCC3)CCCCC2)cc1` [PCP], in the assay with baseline gamma power, the baseline gamma power entry was “dose-dependent increase in baseline gamma power”.

In the case of `NC[C@H](CC(=O)O)c1ccc(Cl)cc1` [STX209, arbaclofen], the “auditory M100 latency” value in assay [1] (MEG at baseline vs 12 weeks after treatment, 4 stimuli, both hemispheres, FIG. 5) is “shortened post-treatment”. For the same compound, the “gamma-band inter-trial coherence (ITC)” value in assay [1] (MEG at baseline vs 12 weeks after treatment, both hemispheres, FIG. 6) is reported as “gamma band ITC was restored after treatment”. Also, the “steady state gamma power” value in assay [1] (baseline vs post-treatment, elicited by AM tone, driven at 40 Hz, FIG. 7) is “boosted post-treatment”.

For `CNC1(c2ccccc2Cl)CCCCC1=O` (stereo not drawn) [ketamine], the baseline gamma power entry in the assay on baseline gamma power is listed as “dose-dependent increase in baseline gamma power”.
